Source: the supplement of paper PMC10307832

Key:
Experiment in all cases: relative viability (nuclei count vs DMSO), 5 days (fraction); higher = more cells survive
[1] = compound: C1CSC2=C(C(=O)N1)SC3=C2C=C(C=C3)O [kb NB 142-70] + CCNC(=O)c1noc(-c2cc(C(C)C)c(O)cc2O)c1-c1ccc(CN2CCOCC2)cc1 [Luminespib] (partner 0.01 µM)
How it was run: (§1)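 Five library-drug doses in √10 steps were combined with a fixed anchor-drug dose, or a single drug was given alone, by pin tool to lung cancer cell lines in 1536-well plates the day after seeding. Nuclei were stained and counted after 5 days. Relative viability is the nuclei count in treated wells over that in vehicle wells, taken as the median of duplicate plates.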

[2] = compound: NCC(=O)Nc1ccc(-n2nc(C(F)(F)F)cc2-c2ccc3c(ccc4ccccc43)c2)cc1 + CC(C)C[C@H](NC(=O)[C@H](Cc1ccccc1)NC(=O)c1cnccn1)B(O)O [Bortezomib] (partner 0.002 µM)
How it was run: as §1

[3] = compound: NCC(=O)Nc1ccc(-n2nc(C(F)(F)F)cc2-c2ccc3c(ccc4ccccc43)c2)cc1 + C[C@]1(O)C[C@@H](c2nc(-c3ccc4ccc(-c5ccccc5)nc4c3)c3c(N)nccn32)C1 [Linsitinib] (partner 1 µM)
How it was run: as §1

[4] = compound: C1CSC2=C(C(=O)N1)SC3=C2C=C(C=C3)O [kb NB 142-70] + Nc1nc2[nH]cc(CCc3ccc(C(=O)N[C@@H](CCC(=O)O)C(=O)O)cc3)c2c(=O)[nH]1 [Pemetrexed] (partner 0.2 µM)
How it was run: as §1

[5] = compound: C1CSC2=C(C(=O)N1)SC3=C2C=C(C=C3)O [kb NB 142-70] + C[C@@H](Oc1cc(-c2cnn(C3CCNCC3)c2)cnc1N)c1c(Cl)ccc(F)c1Cl [Crizotinib] (partner 1 µM)
How it was run: as §1

Cell Line	relative viability ([1]; first compound 0.1 µM)	relative viability ([1]; first compound 1 µM)	relative viability ([1]; first compound 3.162 µM)	relative viability ([2]; first compound 0.02 µM)	relative viability ([2]; first compound 0.06325 µM)	relative viability ([2]; first compound 0.2 µM)	relative viability ([2]; first compound 0.6325 µM)	relative viability ([2]; first compound 2 µM)	relative viability ([3]; first compound 0.02 µM)	relative viability ([3]; first compound 0.06325 µM)	relative viability ([3]; first compound 0.2 µM)	relative viability ([3]; first compound 0.6325 µM)	relative viability ([3]; first compound 2 µM)	relative viability ([4]; first compound 0.1 µM)	relative viability ([4]; first compound 1 µM)	relative viability ([4]; first compound 3.162 µM)	relative viability ([5]; first compound 0.1 µM)	relative viability ([5]; first compound 1 µM)	relative viability ([5]; first compound 3.162 µM)
201T	1.04	1.03	1.08	1.04	1.18	1.03	1.17	1.09	0.957	1.01	1.09	1.09	1.04	0.315	0.349	0.318	0.989	1.07	1.03
A549	–	–	–	–	–	–	–	–	0.626	0.599	0.608	0.579	0.614	–	–	–	0.762	0.861	0.213
A-427	0.845	1.12	0.584	0.949	0.919	0.948	0.972	0.984	1.12	1.17	1.16	1.02	1.03	0.886	1.01	0.873	0.937	1.01	0.908
ABC-1	0.536	0.487	0.336	0.306	0.321	–	0.226	0.267	0.731	0.917	–	0.915	0.855	–	–	–	1.02	1.31	0.497
BEN	0.412	1.13	0.281	0.817	0.852	0.763	0.701	0.576	0.885	1.06	0.923	0.861	0.914	0.773	0.761	0.575	0.791	0.906	0.69
CAL-12T	0.56	0.611	0.25	0.899	1.09	0.967	0.931	1.11	0.718	0.836	0.865	0.775	0.819	1.11	1.34	1.27	0.605	0.802	0.611
COR-L23	0.665	0.524	0.159	1.05	0.944	0.962	0.978	0.737	0.989	0.927	1.05	0.896	0.95	0.183	0.201	0.196	0.679	0.818	0.278
COR-L 105	0.603	0.634	0.712	0.73	0.917	0.744	0.703	1.03	0.918	0.943	0.98	1.02	1.15	1.14	1.08	0.925	0.564	0.816	0.925
Calu-6	–	–	–	0.998	1.2	1.06	0.972	1.04	0.914	0.939	1.06	0.911	0.983	–	–	–	0.748	0.839	0.384
ChaGo-K-1	0.664	0.638	0.448	0.979	1.02	0.81	1.04	1.12	–	–	–	–	–	0.261	0.26	0.257	1.1	1.16	1.13
EBC-1	–	–	–	0.533	0.556	0.738	0.52	0.589	0.888	0.856	0.892	0.899	0.895	–	–	–	0.196	0.209	0.155
EKVX	0.81	0.857	0.943	1.05	1.09	1.16	1.02	0.984	1.04	1.06	0.987	1.01	1.11	0.35	0.399	0.378	0.884	1.04	1.19
EMC-BAC-2	1.25	1.17	0.972	1.02	1.19	1.1	1.07	1.1	0.86	0.848	0.853	0.81	0.821	0.438	0.483	0.451	0.782	0.893	0.625
EPLC-272H	0.361	0.216	0.157	0.806	0.873	0.868	0.943	1.14	1.38	1.06	1.18	1.22	1.18	0.433	0.386	0.176	0.851	1.03	0.428
H3255	0.881	0.845	1.12	0.87	1.12	0.846	0.791	0.876	0.916	0.945	0.958	0.961	0.919	0.572	0.568	0.58	0.97	0.776	0.958
HARA	0.625	0.769	0.456	1.09	1.05	1.22	1.12	1.25	0.935	1.01	1.18	0.965	0.935	0.251	0.293	0.225	0.922	0.817	0.922
HCC-15	0.195	0.605	0.393	1.07	1.06	1.06	1.01	0.996	0.865	0.871	0.897	0.891	0.944	0.227	0.238	0.227	0.773	0.85	0.813
HCC-44	1.03	1	0.405	0.968	0.872	0.946	0.875	0.87	0.648	0.688	0.697	0.632	0.652	0.554	0.731	0.69	0.777	0.883	0.907
